We go through four compounds from PubChem BioAssay AID1259407 (Chemical Carcinogenesis Research Information System (CCRIS), 2018).

In the data set the test system is CCRIS mutagenicity, Ames/micronucleus/aberration tests. Put plainly: CCRIS mutagenicity studies.
Setting [1] is: Test System: AMES SALMONELLA TYPHIMURIUM, Strain/Indicator: TA98, Metabolic Activation: HAMSTER, LIVER, S-9, AROCLOR 1254 (10%), Method: PREINCUBATION
Where [2] appears, read: Test System: AMES SALMONELLA TYPHIMURIUM, Strain/Indicator: TA98, Metabolic Activation: NONE, Method: PREINCUBATION
Where [3] appears, read: Test System: AMES SALMONELLA TYPHIMURIUM, Strain/Indicator: TA98, Metabolic Activation: RAT, LIVER, S-9, AROCLOR 1254 (10%), Method: PREINCUBATION
Setting [4] is: Test System: AMES SALMONELLA TYPHIMURIUM, Strain/Indicator: TA100, Metabolic Activation: HAMSTER, LIVER, S-9, AROCLOR 1254 (10%), Method: PREINCUBATION
The mark [5] stands for this setting: Test System: AMES SALMONELLA TYPHIMURIUM, Strain/Indicator: TA100, Metabolic Activation: NONE, Method: PREINCUBATION
The mark [6] stands for this setting: Test System: AMES SALMONELLA TYPHIMURIUM, Strain/Indicator: TA100, Metabolic Activation: RAT, LIVER, S-9, AROCLOR 1254 (10%), Method: PREINCUBATION
Where [7] appears, read: Test System: AMES SALMONELLA TYPHIMURIUM, Strain/Indicator: TA1535, Metabolic Activation: NONE, Method: PREINCUBATION

Active and inactive are the calls of the source. The rule behind the calls is not given here.

With `C=C(C)c1ccccc1`, the mutagenic call is “inactive; negative” (End Point: In vitro chromosomal aberrations, Test System: Chinese Hamster ovary (CHO) cells, Metabolic Activation: None); “inactive; negative” (End Point: In vitro chromosomal aberrations, Test System: Chinese Hamster ovary (CHO) cells, Metabolic Activation: Rat, Liver, S-9, Aroclor 1254); “active; positive” (End Point: In vivo micronucleus, Test System: Peripheral blood normochromatic erythrocytes, Species: Mouse, Strain/Sex: B6C3F1/ Female, Route: Inhalation); “active; positive” (End Point: In vivo micronucleus, Test System: Peripheral blood normochromatic erythrocytes, Species: Mouse, Strain/Sex: B6C3F1/ Male, Route: Inhalation); “inactive; negative” (Test System: AMES SALMONELLA TYPHIMURIUM, Strain/Indicator: TA97, Metabolic Activation: HAMSTER, LIVER, S-9, AROCLOR 1254 (10 OR 30%), Method: PREINCUBATION); “inactive; negative” (Test System: AMES SALMONELLA TYPHIMURIUM, Strain/Indicator: TA97, Metabolic Activation: NONE, Method: PREINCUBATION). In addition, the mutagenic call (Test System: AMES SALMONELLA TYPHIMURIUM, Strain/Indicator: TA97, Metabolic Activation: RAT, LIVER, S-9, AROCLOR 1254 (10 OR 30%), Method: PREINCUBATION) is “inactive; negative”; the mutagenic call under setting [1] was “inactive; negative”; the mutagenic call (Test System: AMES SALMONELLA TYPHIMURIUM, Strain/Indicator: TA98, Metabolic Activation: HAMSTER, LIVER, S-9, AROCLOR 1254 (30%), Method: PREINCUBATION) was “inactive; negative”; the mutagenic call under setting [2] was “inactive; negative”; the mutagenic call under setting [3] was “inactive; negative”; the mutagenic call (Test System: AMES SALMONELLA TYPHIMURIUM, Strain/Indicator: TA98, Metabolic Activation: RAT, LIVER, S-9, AROCLOR 1254 (30%), Method: PREINCUBATION) is “inactive; negative”. The mutagenic call was “inactive; negative” under setting [4]; “inactive; negative” (Test System: AMES SALMONELLA TYPHIMURIUM, Strain/Indicator: TA100, Metabolic Activation: HAMSTER, LIVER, S-9, AROCLOR 1254 (30%), Method: PREINCUBATION); “inactive; negative” under setting [5]; “inactive; negative” under setting [6]; “inactive; negative” (Test System: AMES SALMONELLA TYPHIMURIUM, Strain/Indicator: TA100, Metabolic Activation: RAT, LIVER, S-9, AROCLOR 1254 (30%), Method: PREINCUBATION); “inactive; negative” (Test System: AMES SALMONELLA TYPHIMURIUM, Strain/Indicator: TA1535, Metabolic Activation: HAMSTER, LIVER, S-9, AROCLOR 1254 (10 OR 30%), Method: PREINCUBATION). Besides, the mutagenic call by setting is: under setting [7], “inactive; negative”; (Test System: AMES SALMONELLA TYPHIMURIUM, Strain/Indicator: TA1535, Metabolic Activation: RAT, LIVER, S-9, AROCLOR 1254 (10 OR 30%), Method: PREINCUBATION) “inactive; negative”.

For the compound `CN(C)CCN(Cc1ccccc1)c1ccccc1`, the mutagenic call was “inactive; negative” under setting [1]; “inactive; negative” under setting [2]; “inactive; negative” under setting [3]; “inactive; negative” under setting [4]; “inactive; negative” under setting [5]; “inactive; negative” under setting [6]. The mutagenic call was “inactive; negative” (Test System: AMES SALMONELLA TYPHIMURIUM, Strain/Indicator: TA1535, Metabolic Activation: HAMSTER, LIVER, S-9, AROCLOR 1254 (10%), Method: PREINCUBATION); “inactive; negative” under setting [7]; “inactive; negative” (Test System: AMES SALMONELLA TYPHIMURIUM, Strain/Indicator: TA1535, Metabolic Activation: RAT, LIVER, S-9, AROCLOR 1254 (10%), Method: PREINCUBATION); “inactive; negative” (Test System: AMES SALMONELLA TYPHIMURIUM, Strain/Indicator: TA1537, Metabolic Activation: HAMSTER, LIVER, S-9, AROCLOR 1254 (10%), Method: PREINCUBATION); “inactive; negative” (Test System: AMES SALMONELLA TYPHIMURIUM, Strain/Indicator: TA1537, Metabolic Activation: NONE, Method: PREINCUBATION); “inactive; negative” (Test System: AMES SALMONELLA TYPHIMURIUM, Strain/Indicator: TA1537, Metabolic Activation: RAT, LIVER, S-9, AROCLOR 1254 (10%), Method: PREINCUBATION).

For `CCCCNC(=O)c1cc(N)ccc1Oc1ccc(C)cc1`, the mutagenic call was “inactive; negative. data for pa31 mentioned in abstract only” (Test System: Ames Salmonella typhimurium, Strain/Indicator: TA98, Metabolic Activation: None, Method: Preincubation); “active; positive” (Test System: Ames Salmonella typhimurium, Strain/Indicator: TA98, Metabolic Activation: Rat, Liver, S-9, Phenobarbital and beta-naphthoflavone, Method: Preincubation); “inactive; negative. data for pa31 mentioned in abstract only” (Test System: Ames Salmonella typhimurium, Strain/Indicator: TA100, Metabolic Activation: None, Method: Preincubation); “active; positive” (Test System: Ames Salmonella typhimurium, Strain/Indicator: TA100, Metabolic Activation: Rat, Liver, S-9, Phenobarbital and beta-naphthoflavone, Method: Preincubation); “inactive; negative. data for pa31 mentioned in abstract only” (Test System: Ames Salmonella typhimurium, Strain/Indicator: TA102, Metabolic Activation: None, Method: Preincubation); “inactive; negative. data for pa31 mentioned in abstract only” (Test System: Ames Salmonella typhimurium, Strain/Indicator: TA1535, Metabolic Activation: None, Method: Preincubation). Also, the mutagenic call (Test System: Ames Salmonella typhimurium, Strain/Indicator: TA1537, Metabolic Activation: None, Method: Preincubation) is “inactive; negative. data for pa31 mentioned in abstract only”.

`CO[C@@]1(NC(=O)CSC[C@@H](N)C(=O)O)C(=O)N2C(C(=O)O)=C(CSc3nnnn3C)CS[C@@H]21`: the mutagenic call is, setting by setting: (Test System: AMES SALMONELLA TYPHIMURIUM, Strain/Indicator: TA98, Metabolic Activation: NONE) “inactive; negative”; (Test System: AMES SALMONELLA TYPHIMURIUM, Strain/Indicator: TA98, Metabolic Activation: S-9) “inactive; negative”; (Test System: AMES SALMONELLA TYPHIMURIUM, Strain/Indicator: TA100, Metabolic Activation: NONE) “inactive; negative”; (Test System: AMES SALMONELLA TYPHIMURIUM, Strain/Indicator: TA100, Metabolic Activation: S-9) “inactive; negative”; (Test System: AMES SALMONELLA TYPHIMURIUM, Strain/Indicator: TA1535, Metabolic Activation: NONE) “inactive; negative”; (Test System: AMES SALMONELLA TYPHIMURIUM, Strain/Indicator: TA1535, Metabolic Activation: S-9) “inactive; negative”. In addition, the mutagenic call (Test System: AMES SALMONELLA TYPHIMURIUM, Strain/Indicator: TA1537, Metabolic Activation: NONE) was “inactive; negative”; the mutagenic call (Test System: AMES SALMONELLA TYPHIMURIUM, Strain/Indicator: TA1537, Metabolic Activation: S-9) was “inactive; negative”; the mutagenic call (Test System: AMES SALMONELLA TYPHIMURIUM, Strain/Indicator: TA1538, Metabolic Activation: NONE) is “inactive; negative”; the mutagenic call (Test System: AMES SALMONELLA TYPHIMURIUM, Strain/Indicator: TA1538, Metabolic Activation: S-9) is “inactive; negative”; the mutagenic call (Test System: E. COLI, Strain/Indicator: WP2 UVRA, Metabolic Activation: NONE) was “inactive; negative”; the mutagenic call (Test System: E. COLI, Strain/Indicator: WP2 UVRA, Metabolic Activation: S-9) is “inactive; negative”.
